This passage reports Activity results from ChEMBL document CHEMBL5154714, “Discovery of Novel Bicyclic Imidazolopyridine-Containing Human Urate Transporter 1 Inhibitors as Hypouricemic Drug Candidates with Improved Efficacy and Favorable Druggability” (J Med Chem, 2022).

In experiment [1] the test system is Mus musculus. In words: Hypouricemic activity in Kunming mouse model of xanthine and potassium oxonate-induced acute hyperuricemia assessed as decrease in serum uric acid concentration at 2 mg/kg, po incubated for more than 4 hrs. The format is functional.
Experiment [2] relates to Mus musculus. In words: Hypouricemic activity in Kunming mouse model of xanthine and potassium oxonate-induced acute hyperuricemia assessed as decrease in serum uric acid ratio at 2 mg/kg, po incubated for more than 4 hrs. The format is functional. Set-up: scale not given: the % may be the effect or the level left.

For `O=C(O)CCCSc1nc2cnccc2n1Cc1ccc(Br)c2ccccc12`, the Activity came to 1110.8 µM in experiment [1] and 8% in experiment [2].

As to `O=C(O)CCCSc1nc2ncccc2n1Cc1ccc(Br)c2ccccc12`, the Activity in experiment [1] was found to be 467.8 µM; in experiment [2], 68.6%.

Consider `O=C(O)CCSc1nc2cnccc2n1Cc1ccc(C2CC2)c2ccccc12`, for which the Activity in experiment [1] amounted to 658.4 µM; in experiment [2], 50.7%.

In the case of `CC(C)(Sc1nc2cnccc2n1Cc1ccc(C2CC2)c2ccccc12)C(=O)O`, the Activity is 743.8 µM in experiment [1] and 42.6% in experiment [2].

In the case of `CC(Sc1nc2cnccc2n1Cc1ccc(Br)c2ccccc12)C(=O)O` (configuration not stated), the Activity turned out to be 801.8 µM in experiment [1] and 37.2% in experiment [2].

Turning to `O=C(O)C1(Sc2nc3cnccc3n2Cc2ccc(Br)c3ccccc23)CCC1`, the Activity turned out to be 396 µM in experiment [1] and 75.4% in experiment [2].

Turning to `O=C(O)CSc1nc2ncccc2n1Cc1ccc(C2CC2)c2ccccc12`, the figures for the Activity in experiment [1] and in experiment [2] were 558.2 µM and 60.1%, respectively.

With `O=C(O)CCCSc1nc2cnccc2n1Cc1ccc(C2CC2)c2ccccc12`, the results for the Activity in experiment [1] and in experiment [2] were 1105 µM and 8.6%, respectively.

On to `O=C(O)C1(Sc2nc3cnccc3n2Cc2ccc(C3CC3)c3ccccc23)CCC1`, for which the Activity came out at 546 µM in experiment [1] and 61.3% in experiment [2].

With `O=C(O)C1(Sc2nc3ncccc3n2Cc2ccc(C3CC3)c3ccccc23)CCC1`, the Activity in experiment [1] was 853.4 µM; in experiment [2], 32.3%.

For the molecule `CC(C)(Sc1nc2ncccc2n1Cc1ccc(C2CC2)c2ccccc12)C(=O)O`, the Activity in experiment [1] worked out at 759.2 µM; in experiment [2], 41.2%.

Take `CC(Oc1nc2cnccc2n1-c1ccc(C2CC2)c2ccccc12)C(=O)O` (configuration not stated): the Activity was 994 µM in experiment [1] and 5.9% in experiment [2].

As for `CC(Sc1nc2ncccc2n1Cc1ccc(C2CC2)c2ccccc12)C(=O)O` (configuration not stated), the Activity came to 629.8 µM in experiment [1] and 53.4% in experiment [2].

On to `O=C(O)CCSc1nc2cnccc2n1Cc1ccc(Br)c2ccccc12`, for which the Activity in experiment [1] was 624.8 µM; in experiment [2], 53.8%.

Take `O=C(O)CSc1nc2ncccc2n1Cc1ccc(Br)c2ccccc12`: the values for the Activity in experiment [1] and in experiment [2] were 400.2 µM and 75%, respectively.

As to `O=C(O)CCOc1nc2cnccc2n1-c1ccc(C2CC2)c2ccccc12`, the Activity was 972.6 µM in experiment [1] and 8.2% in experiment [2].

As to `CC(C)(Oc1nc2cnccc2n1-c1ccc(C2CC2)c2ccccc12)C(=O)O`, the figures for the Activity in experiment [1] and in experiment [2] were 442.8 µM and 64.7%, respectively.

On to `O=C(O)COc1nc2ncccc2n1-c1ccc(C2CC2)c2ccccc12`, for which the Activity in experiment [1] is 250.4 µM; in experiment [2] it was 85.2%.

For the molecule `O=C(O)CCSc1nc2ncccc2n1Cc1ccc(Br)c2ccccc12`, the Activity in experiment [1] worked out at 1150.6 µM; in experiment [2], 4.3%.

With `CC(Sc1nc2ncccc2n1Cc1ccc(Br)c2ccccc12)C(=O)O` (configuration not stated), the values for the Activity in experiment [1] and in experiment [2] were 545.8 µM and 61.3%, respectively.

Take `O=C(O)C1(Sc2nc3ncccc3n2Cc2ccc(Br)c3ccccc23)CCC1`: the Activity in experiment [1] came to 462.4 µM; in experiment [2], 69.1%.

Turning to `CC(Sc1nc2cnccc2n1Cc1ccc(C2CC2)c2ccccc12)C(=O)O` (configuration not stated), the Activity in experiment [1] was 787.4 µM; in experiment [2], 38.5%.

Consider `O=C(O)COc1nc2cnccc2n1-c1ccc(C2CC2)c2ccccc12`, for which the Activity in experiment [1] was found to be 220 µM; in experiment [2], 88.5%.

With `O=C(O)CSc1nc2cnccc2n1Cc1ccc(Br)c2ccccc12`, the Activity was found to be 740.6 µM in experiment [1] and 42.9% in experiment [2].

Regarding `O=C(O)CCCOc1nc2ncccc2n1-c1ccc(C2CC2)c2ccccc12`, the results for the Activity in experiment [1] and in experiment [2] were 735.2 µM and 33.5%, respectively.

As to `O=C(O)CCCSc1nc2ncccc2n1Cc1ccc(C2CC2)c2ccccc12`, the figures for the Activity in experiment [1] and in experiment [2] were 1050.2 µM and 13.7%, respectively.
